Results on ten substances are retold here after patent publication US5047337A, “Ceramide-glycanase” (priority 1987, dated 1991).

One assay deals with leech ceramide-glycanase. Description: Hydrolysis of glycolipids with leech enzyme (TLC). Format: biochemical, leech (Hirudo medicinalis, Macrobdella decora). The note with it: 30 nmol substrate, pH 4.5, sodium taurodeoxycholate 200 μg, 37° C. The protocol: Assays were performed in 10×75 mm glass tubes. […] Glycolipid substrates included LacCer, GbOse3 Cer, GbOse4 Cer, GbOse5 Cer, nLcOse4 Cer, GM3, GM2, GM1, GD1a and GT1. After the mixture was incubated at 37° C. for a preset time, the reaction was terminated by adding 5 volumes of chloroform:methanol (2:1). The mixture was vortexed and briefly centrifuged to separate the organic phase (lower) from the aqueous phase (upper). Under this condition the enzyme protein became insoluble and stayed at the interface. […] For detection of the released oligosaccharide, the aqueous phase was analyzed by thin-layer chromatography using n-butanol:acetic acid:H2 O (2:1:1) as the developing solvent. […] The chromatograms are seen in FIGS. 2 and 3.
In the case of “lacto-N-neotetraoyl-ceramide [nLcOse4 Cer]”, the “release of intact oligosaccharide from the glycolipid by leech ceramide-glycanase” value is on record as “able to liberate the intact oligosaccharide”.
On the same count and under the same terms, as for globopentaoyl-ceramicde [GbOse5 Cer], the entry is “able to liberate the intact oligosaccharide”.
On to globotriaosyl-ceramide [GbOse3 Cer], for which the “release of intact oligosaccharide from the glycolipid by leech ceramide-glycanase” value is “able to liberate the intact oligosaccharide”.
The same measure, in the same setting: under GD1a stands “liberated an intact sialic acid containing oligosaccharide”.
Still for that read-out and setting: under lactosyl-ceramide [LacCer] stands “able to liberate the intact oligosaccharide”.
Same read-out and setting: as for globotetraosyl-ceramide [GbOse4 Cer], the entry is “able to liberate the intact oligosaccharide”.

Another assay concerns earthworm ceramide-glycanase. Description: Hydrolysis of glycolipids with earthworm enzyme (TLC). It is filed as biochemical, Lumbricus terrestris. The settings on record: 20 nmol substrate, pH 4.5, sodium taurodeoxycholate 400 μg, 37° C., 16 hours. As for the experimental part:
The assay for ceramide-glycanase was carried out essentially according to the method described above in Example 3. […] Glycolipid substrates included LacCer, GbOse3 Cer, GT1, […] and GlcCer. […] The mixture was vortexed and centrifuged to separate the organic phase (lower) from the aqueous phase (upper). […] For the detection of the released oligosaccharide, the aqueous phase was analyzed by TLC using n-butanol:acetic acid:H2 O (2:1:1) as the developing solvent. […] The chromatograms are seen in FIGS. 5 and 6.
With glucosylceramide [GlcCer], the “hydrolysis of the glycolipid by earthworm ceramide-glycanase” value is listed as “refractory”.
Take lactosyl-ceramide [LacCer]: the “hydrolysis of the glycolipid by earthworm ceramide-glycanase” value is “hydrolyzed”.
Same read-out and setting: as for Galα1→4GalCer [DiGalCer], the entry is “not hydrolyzed”; as for galactosylceramide [GalCer], “refractory”.

Staying with this assay, now noted: one unit enzyme, 37° C., 17 h, TLC.
Take globopentaoyl-ceramicde [GbOse5 Cer]: the “release of ceramides from the glycolipid by earthworm ceramide-glycanase” value is listed as “able to release ceramides”.
As to globotriaosyl-ceramide [GbOse3 Cer], the “release of ceramides from the glycolipid by earthworm ceramide-glycanase” value is “able to release ceramides”.
On the same count and under the same terms, under GD1a stands “able to release ceramides”; under lactosyl-ceramide [LacCer], “able to release ceramides”; under globotetraosyl-ceramide [GbOse4 Cer], “able to release ceramides”.

The test system of the next assay is Annelid ceramide-glycanase. Put plainly: Substrate specificity and pH optimum of annelid ceramide-glycanase from leeches and earthworms (general description). It is filed as biochemical. The settings on record: enzyme obtained from leeches and earthworms.
As to 3-sulfo-lactosyl ceramide, the “hydrolysis of the glycosphingolipid by annelid ceramide-glycanase” value was “hydrolyzes”.
Still for that read-out and setting: under “lacto-N-neotetraoyl-ceramide [nLcOse4 Cer]” stands “hydrolyzes”; under globopentaoyl-ceramicde [GbOse5 Cer], “hydrolyzes”.
Same read-out and setting: as for glucosylceramide [GlcCer], the entry is “will not generally hydrolyze”.
For the substance globotriaosyl-ceramide [GbOse3 Cer], the “hydrolysis of the glycosphingolipid by annelid ceramide-glycanase” value is listed as “hydrolyzes”.
On the same count and under the same terms, under GD1a stands “hydrolyzes”.
Still for that read-out and setting: as for lactosyl-ceramide [LacCer], the entry is “hydrolyzes”; as for globotetraosyl-ceramide [GbOse4 Cer], “hydrolyzes”.
Same read-out and setting: under galactosylceramide [GalCer] stands “will not generally hydrolyze”.
